# Test results reported in PubChem BioAssay AID1963426 (Molecular Pharmacology Branch, DTP, NCI, 2024).
# Values joined by “and” are separate entries in the source; they are usually repeats but may differ in a detail not shown here. Equal values may be shown once.
# System: 186277-243-T-J2-PDC complex spheroid growth, % test/control
# Experiment: Anticancer human tumor 186277-243-T-J2-PDC patient-derived colon adenocarcinoma cell line growth inhibition [Asc]
# Conditions: for viability, T/C: stronger effect = lower value
# Description: Multicellular complex tumor spheroid response to apoptosis pathway targeting inhibitors Alrizomadlin, Pelcitoclax, and Dasminapant in combination with a variety of drugs and investigational agents in selected tumor cell lines
# The MDM2 inhibitor alrizomadlin, the Bcl-2/Bcl-xL inhibitor pelcitoclax, and the IAPs inhibitor dasminapant were evaluated both individually and in combination with standard of care and investigational anticancer small molecules within a complex spheroid model of solid tumors. . Complex spheroids include a stromal component modeled by human endothelial cells (HUVEC) and fibroblasts modeled by human mesenchymal stem cells (MSCs). The concentration ranges selected for each drug and investigational agent were based upon clinically achievable concentrations if the clinical Cmax of the agent was known.
# Compounds. The drugs and investigational agents: alrizomadlin (APG-115; NSC831270), pelcitoclax (APG-1252; NSC835773), dasminapant (APG-1387;NSC834197), TAK-243 (NSC785004), copanlisib (NSC809693), olaparib (NSC753686), talazoparib (NSC767125), cobimetinib (NSC 768068), eltanexor (KPT-8602, NSC 794443), abemaciclib (NSC 768073), sotorasib (NSC818433), adagrasib (NSC 831453), MRTX-1133 (NSC 836407), Iadademestat (ORY1001, NSC 806812), and RMC-4630 (NSC839698), were obtained from the NCI Developmental Therapeutics Program Chemical Repository. The FDA-approved anticancer drug set is available from the Developmental Therapeutics Program at https://dtp.cancer.gov/organization/dscb/obtaining/available plates.htm. […] The stock solutions were prepared in dimethyl sulfoxide (DMSO, Sigma-Aldrich, St. Louis, MO, cat. D2650) at 800-fold the tested concentration and stored at -70 degrees C prior to their use. All drugs and investigational agents were tested over a range starting from a high concentration at or near the clinical Cmax and decreasing in half-log increments. If the clinical Cmax for an agent had not been determined, the highest concentration tested was 10 microM.
# The patient-derived cancer (PDC) cell lines include five colon adenocarcinomas: 186277-243-T-J2-PDC, 616215-338-R-J1-PDC, 439559-082-T-J2-PDC, 463943-066-T-J2-PDC, and 519858-162-T-J1-PDC; three pancreatic carcinomas: 323965-272-R-J2-PDC, 521955-158-R6-J3-PDC, and 521955-158-R2-J5-PDC; two uterine sarcomas: 327498-152-R-J2-PDC and 993429-296-R-J1-PDC; two rhabdomyosarcomas: 755483-174-R-J1-PDC and 772245-204-R-J1-PDC; two soft tissue sarcomas: 126254-015-R-J1-PDC and 494315-158-R-J1-PDC; two malignant fibrous histiocytomas: 317291-083-R-J1-PDC and 596521-263-R-J1-PDC; two breast carcinomas: 171881-019-R-J1-PDC and 885512-296-R-J2-PDC; and one ovarian carcinoma: 6556581-035-R-J-PDC were obtained from the NCI PDMR, (https://pdmr.cancer.gov). The established cell lines HSSY-2 synovial sarcoma (RRID:CVCL 8719), SYO-1 synovial sarcoma (RRID:CVCL_7146), MPNST malignant peripheral neural sheath tumor were obtained from the Sloan Kettering Institute. The following established cell lines were purchased from the American Type Culture Collection (ATCC, Manassas, VA), Sor the received from the NCI repository:, PANC-1 pancreatic carcinoma (CRL-1469, RRID:CVCL_0480), OVCAR-5 ovarian carcinoma (RRID:CVCL_1628), OVCAR-8 ovarian carcinoma (RRID:CVCL_1629), , MCF-7 breast carcinoma (CRL-12584, RRID:CVCL_0031), MDA-MB-231 breast carcinoma (CRL-12532, RRID:CVCL_0062), NCI-H1876 small cell lung carcinoma (CRL-5902, RRID:CVCL_1503), NCI-H510A small cell lung carcinoma (HTB-184, RRID:CVCL_1565), NCI-H1417 (CRL-5869, RRID:CVCL_1469), and NCI-H196 small cell lung carcinoma (CRL-5823, RRID:CVCL_1509). Dr. Peter Houghton (Greehey Children's Cancer Research Institute, University of Texas Health Science Center, San Antonio, TX) provided Rh-18 rhabdomyosarcoma (RRID:CVCL_1659). Pooled donor human umbilical vein endothelial cells (HUVEC, Lonza, cat. CC-2519) and human mesenchymal stem cells (hMSC, Lonza, cat. PT-2501) were purchased from Lonza (Walkersville, MD).
# Cell Culture. […]
# 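Also: spheroids exposed to agents for 7 days.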
# 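For viability, T/C in this document: 100% = DMSO vehicle control wells.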
SMILES,"viability, T/C (compound 0.0316 µM)","viability, T/C (compound 0.1 µM)","viability, T/C (compound 0.316 µM)","viability, T/C (compound 1 µM)",IC50 (curve of compound),"viability, T/C (compound 0.00316 µM)","viability, T/C (compound 0.01 µM)",further results
C#Cc1c(F)ccc2cc(O)cc(-c3ncc4c(N5CC6CCC(C5)N6)nc(OCC56CCCN5CC(F)C6)nc4c3F)c12 (stereo not drawn),103% and 107% and 88.1%,105% and 88.2% and 66.5%,76.8% and 48.2% and 40.8%,33.4% and 21.4% and 16.8%,0.649 µM and 0.306 µM and 0.204 µM,–,–,"viability, T/C (compound 3.16 µM): 19.4% and 12.1% and 11.2%; viability, T/C (compound 10 µM): 12.5% and 8.62% and 7.15%"
C=C(F)C(=O)N1CCN(c2nc(OCC3CCCN3C)nc3c2CCN(c2cccc4cccc(Cl)c24)C3)CC1CC#N (stereo not drawn),107% and 98.5% and 102%,112% and 77.5% and 116%,107% and 83.6% and 103%,103% and 77.3% and 80.7%,5.7 µM and 5.17 µM and 9.28 µM,–,–,"viability, T/C (compound 3.16 µM): 96.5% and 85% and 109%"
C=CC(=O)N1CCN(c2nc(=O)n(-c3c(C)ccnc3C(C)C)c3nc(-c4c(O)cccc4F)c(F)cc23)C(C)C1 (stereo not drawn),105% and 89.2% and 107%,92.6% and 91.2% and 95.4%,92.2% and 96.7% and 90.9%,102% and 99.8% and 107%,> 10 µM,–,–,"viability, T/C (compound 3.16 µM): 97.3% and 94.7% and 112%; viability, T/C (compound 10 µM): 114% and 102% and 97.3%"
CCN1C(C(=O)NC23CCC(C(=O)O)(CC2)CC3)C(c2cccc(Cl)c2F)C2(C(=O)Nc3cc(Cl)ccc32)C12CCCCC2 (stereo not drawn),–,–,–,–,1.86 µM and > 3 µM,–,–,"viability, T/C (compound 0.00949 µM): 110% and 119%"
CCN1CCN(Cc2ccc(Nc3ncc(F)c(-c4cc(F)c5nc(C)n(C(C)C)c5c4)n3)nc2)CC1,116% and 109% and 93.2%,116% and 108% and 112%,99.9% and 99.1% and 127%,97.2% and 98.6% and 123%,> 1 µM,102% and 90.6% and 91.4%,88% and 106% and 84.1%,–
CNC(C)C(=O)NC1CN(S(=O)(=O)c2cccc(S(=O)(=O)N3CCC4CCC(C(=O)NC(c5ccccc5)c5ccccc5)N4C(=O)C(NC(=O)C(C)NC)C3)c2)CCC2CCC(C(=O)NC(c3ccccc3)c3ccccc3)N2C1=O (stereo not drawn),–,104% [middle of 15 runs],–,–,> 1 µM,93.8% and 103%,–,"IC50 (compound alone, run of 10/03/2022): > 1 µM"
COc1c(OCCCN2CCOCC2)ccc2c3n(c(=NC(=O)c4cnc(N)nc4)nc12)CCN3,58.9% and 54.5% and 69%,35.2% and 28.6% and 56.5%,17.5% and 17% and 29.3%,13.2% and 11.8% and 19.8%,0.0522 µM and 0.0413 µM and 0.112 µM,91% and 96.2% and 93.6%,102% and 91% and 105%,–
Cc1c(S(C)(=O)=O)c(-c2cc(F)cc(N3CCN(c4ccc(NS(=O)(=O)c5ccc(NC(CCN6CCC(C(=O)OCCCP(=O)(O)O)CC6)CSc6ccccc6)c(S(=O)(=O)C(F)(F)F)c5)cc4)CC3)c2)c(-c2ccc(Cl)cc2)n1C(C)C (stereo not drawn),–,–,–,–,–,–,–,"IC50 (compound alone, run of 09/27/2022): > 10 µM"
Cc1nc(N2CCC3(CC2)COC(C)C3N)c(CO)nc1Sc1ccnc(N)c1Cl (stereo not drawn),–,–,–,–,> 3 µM,–,–,"viability, T/C (compound 0.00949 µM): 92.7% and 111% and 93.3%; viability, T/C (compound 0.03 µM): 89.2% and 95.6% and 104%; viability, T/C (compound 0.0949 µM): 81% and 91.5% and 95.9%; viability, T/C (compound 0.3 µM): 102% and 103% and 96.9%; viability, T/C (compound 0.949 µM): 102% and 114% and 95%; viability, T/C (compound 3 µM): 109% (2×) and 93.4%"
Cn1ncnc1[C@H]1c2n[nH]c(=O)c3cc(F)cc(c23)N[C@@H]1c1ccc(F)cc1,118% and 122% and 108%,111% and 134% and 100%,–,–,> 0.1 µM,108% and 104% and 99.5%,116% and 118% and 84.3%,"viability, T/C (compound 0.000316 µM): 93% and 95.2% and 74.1%; viability, T/C (compound 0.001 µM): 99.3% and 88.2% and 97.6%"
NC(=O)C(=Cn1cnc(-c2cc(C(F)(F)F)cc(C(F)(F)F)c2)n1)c1cncnc1,–,–,–,–,0.161 µM and 0.141 µM and 0.218 µM,–,–,"viability, T/C (compound 0.000949 µM): 99.3% and 89.8% and 97.7%; viability, T/C (compound 0.003 µM): 80.2% and 78.8% and 94.8%; viability, T/C (compound 0.00949 µM): 96.9% and 100% and 103%; viability, T/C (compound 0.03 µM): 96.2% and 77.8% and 106%; viability, T/C (compound 0.0949 µM): 81.6% and 71.7% and 101%; viability, T/C (compound 0.3 µM): 12.6% and 11.8% and 30.5%"
NC1CCC(NC2CC2c2ccccc2)CC1 (stereo not drawn),83.8% and 77.6% and 108%,79.2% and 72.9% and 88.8%,–,–,> 0.1 µM,101% and 79% and 98.9%,96.4% and 84.1% and 93.7%,"viability, T/C (compound 0.000316 µM): 104% and 75.7% and 107%; viability, T/C (compound 0.001 µM): 96.8% and 96.6% and 112%"
O=C(c1cc(Cc2n[nH]c(=O)c3ccccc23)ccc1F)N1CCN(C(=O)C2CC2)CC1,98.1% and 91.9% and 98.5%,95.8% and 101% and 97.5%,94.8% and 99% and 102%,95.9% and 94.6% and 98.1%,> 10 µM,–,–,"viability, T/C (compound 3.16 µM): 105% and 117% and 121%; viability, T/C (compound 10 µM): 103% and 112% and 135%"
O=C(c1ccc(F)c(F)c1Nc1ccc(I)cc1F)N1CC(O)([C@@H]2CCCCN2)C1,97.7% and 88.7% and 90.1%,59.7% and 58.8% and 96.4%,14.8% and 15.4% and 23.9%,9.12% and 8.82% and 13.1%,0.127 µM and 0.201 µM,87.9% and 90.5% and 94.8%,88.2% and 90.8% and 78.7%,–
